Where two headings read alike, the source gives them in different places.
What was measured:
[1] = test system: young, orchidectomized rats; assay: Rat Herschberger assay: organ weights of orchidectomized rats relative to sham; format: in vivo, rat (Sprague Dawley); conditions: 10 mg/kg (po), once daily for 4 days
From the text: The following is a typical procedure of the in vivo evaluation of the selective androgens of this invention. In particular, this assay looks primarily at the ability of the selective androgens of this invention to increase muscle size in an immature, castrated rat. In addition, androgenic effects are looked at primarily by weighing the prostate and seminal vesicles. Selective compounds will show a greater increase in the levator ani relative to the prostate and seminal vesicles when compared to testosterone treated, castrated animals or to intact animals that have not been treated. Immature Sprague Dawley male rats were obtained Charles River Laboratories (Stoneridge, N.Y.). All animals were maintained in a temperature and humidity controlled room with a 12 hr light: 12 hr dark cycle, with ad lib access to food (TD 291615, Teklad, Madison, Wis.) and water. Rats were anesthetized and orchidectomized (GDX) or sham surgery (SHAM) was performed. After a 7-day recovery period, the animals were randomized according to weight and assigned to treatment groups (n=5), SHAM, OVX+ vehicle, OVX+Cpd treated. Testosterone propionate (TP 1 mg/kg in 5% DMSO/95% corn oil) was administered by once daily subcutaneous injections, while the compounds of the invention are dosed in vehicle (typically 20% cyclodextrin or 0.5% carboxymethylcellulose) was administered by once daily oral gavage. The rats were then dosed once daily for 4 days. All animals were euthanized via carbon dioxide inhalation 24 hs after the last dose. The prostate, seminal vesicle and levator ani and bulba cavernous (LABC) tissues were removed, weighed and recorded. Body weights were recorded for each animal at baseline and at sacrifice.
Prostate, seminal vesicle and levator ani bulbus cavernosus (LABC) are all represented as % relative to sham. After sacrifice, organ weights of young, orchidectomized rats treated with compound for 4 days are compared to sham operated animals.

[2] = molecular target: T1, androgen receptor (AR) (Rattus norvegicus, UniProt P15207); assay: androgen receptor binding assay (fluorescence polarization, Fluormone AL Green competition)
T1 construct: purchased Invitrogen, Madison, Wis
T1 sequence (P15207 651-902 limits assumed): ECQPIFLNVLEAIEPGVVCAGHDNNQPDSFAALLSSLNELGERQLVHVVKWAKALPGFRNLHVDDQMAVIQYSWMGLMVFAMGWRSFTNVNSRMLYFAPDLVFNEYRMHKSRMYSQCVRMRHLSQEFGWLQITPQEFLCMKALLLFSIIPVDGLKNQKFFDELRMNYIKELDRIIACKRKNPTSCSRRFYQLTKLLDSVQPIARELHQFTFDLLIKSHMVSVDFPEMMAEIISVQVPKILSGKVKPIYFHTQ
Protocol: The assay was performed as specified by the manufacturer (Invitrogen, Madison, Wis.). Briefly, 1 μl of 10 mM compound was added to 500 μl of AR screening buffer in a 1.5 ml eppendorf tube to make a 2×10^−5M stock. 10-fold serial dilutions of the test compounds were prepared ranging in concentration from 10^−5M to 10^−12M. Each dilution was added in triplicate to a black 384-microtiter plate. The test compounds will be diluted 2-fold in the final reaction. 2×AR-Fluormone™ complex was prepared with 2 nM Flourmone AL Green™ and 30 nM AR. 25 μl of 2× complex was aliquoted to each reaction well, such that the final reaction volume was 50 μl per well. Plate was sealed with a foil cover and incubated in the dark at room temperature for 4 h. Polarization values for each well were measured. The polarization values were plotted against the concentration of the test compound. […] As a control, a competition curve for R1881 (methyltrienolone) was performed for each assay. Curve Fitting was performed using GraphPad Prism® software from GraphPad™ Software Inc. Binding data are reported as a single determination if the experiment was run once only and as the average of experiments if the binding experiment was performed two or more times with that compound.
Where multiple data points have been taken, the value reported is the average of the multiple determinations.

SMILES | IC50 [2] [nM] | further results
Cc1c(N[C@@H](c2nnc(-c3ccccc3)o2)[C@@H](C)O)ccc(C#N)c1Cl [Example 3, 2-chloro-4-((1R,2R)-2-hydroxy-1-(5-phenyl-1,3,4-oxadiazol-2-yl)propylamino)-3-methylbenzonitrile] | 6 | LABC (levator ani bulbus cavernosus) weight, % relative to sham [1]: 99%; Prostate weight, % relative to sham [1]: 43%; Seminal vesicle weight, % relative to sham [1]: 37%
Cc1c(N[C@@H](c2nnc(-c3ccccc3)o2)[C@H](C)O)ccc(C#N)c1Cl [Example 1, 2-chloro-4-((1R,2S)-2-hydroxy-1-(5-phenyl-1,3,4-oxadiazol-2-yl)propylamino)-3-methylbenzonitrile] | 3 | LABC (levator ani bulbus cavernosus) weight, % relative to sham [1]: 85%; Prostate weight, % relative to sham [1]: 46%; Seminal vesicle weight, % relative to sham [1]: 69%
Cc1c(N[C@@H](c2nnc(-c3ccccc3)s2)[C@@H](C)O)ccc(C#N)c1Cl [Example 26, 2-chloro-4-((1R,2R)-2-hydroxy-1-(5-phenyl-1,3,4-thiadiazol-2-yl)propylamino)-3-methylbenzonitrile] | 10 | 
Cc1c(N[C@@H](c2nnc(-c3ccc(Cl)c(Cl)c3)o2)[C@H](C)O)ccc(C#N)c1Cl [Example 55, 2-Chloro-4-((1R,2S)-1-(5-(3,4-dichlorophenyl)-1,3,4-oxadiazol-2-yl)-2-hydroxypropylamino)-3-methylbenzonitrile] | 11 | 
Cc1c(N[C@@H](c2nnc(-c3ccc(C#N)cc3)o2)[C@@H](C)O)ccc(C#N)c1Cl [Example 23, 2-chloro-4-((1R,2R)-1-(5-(4-cyanophenyl)-1,3,4-oxadiazol-2-yl)-2-hydroxypropylamino)-3-methylbenzonitrile] | 0.7 | 
Cc1c(N[C@@H](c2nnc(-c3ccc(O)cc3)o2)[C@H](C)O)ccc(C#N)c1Cl [Example 8, 2-chloro-4-((1R,2S)-2-hydroxy-1-(5-(4-hydroxyphenyl)-1,3,4-oxadiazol-2-yl)propylamino)-3-methylbenzonitrile] | 15 | 
Cc1c(N[C@@H](c2nnc(-c3ccc(F)c(F)c3)o2)[C@@H](C)O)ccc(C#N)c1Cl [Example 39, 2-Chloro-4-((1R,2R)-1-(5-(3,4-difluorophenyl)-1,3,4-oxadiazol-2-yl)-2-hydroxypropylamino)-3-methylbenzonitrile] | 0.1 | 
CCc1c(N[C@@H](c2nnc(-c3ccc(C#N)cc3)o2)[C@H](C)O)ccc(C#N)c1Cl [Example 47, 2-Chloro-4-((1R,2S)-1-(5-(4-cyanophenyl)-1,3,4-oxadiazol-2-yl)-2-hydroxypropylamino)-3-ethylbenzonitrile] | 1 | 
Cc1c(N[C@@H](c2nnc(-c3ccc(I)cc3)o2)[C@H](C)O)ccc(C#N)c1Cl [Example 57, 2-Chloro-4-((1R,2S)-2-hydroxy-1-(5-(4-iodophenyl)-1,3,4-oxadiazol-2-yl)propylamino)-3-methylbenzonitrile] | 11 | 
Cc1c(N[C@@H](c2nnc(-c3ccc(C#N)cc3)o2)[C@H](C)O)ccc(C#N)c1C(F)(F)F [Example 42, 4-((1R,2S)-1-(5-(4-Cyanophenyl)-1,3,4-oxadiazol-2-yl)-2-hydroxypropylamino)-3-methyl-2-(trifluoromethyl)benzonitrile] | 9 | 
Cc1c(N[C@@H](c2nnc(-c3ccccc3)o2)C(C)(C)O)ccc(C#N)c1Cl [Example 14, (R)-2-chloro-4-(2-hydroxy-2-methyl-1-(5-phenyl-1,3,4-oxadiazol-2-yl)propylamino)-3-methylbenzonitrile] |  | IC50 ([2]; single determination or average of multiple determinations, read-out: Binding IC50 (AR-Binding Affinity)): 17 nM
Cc1c(N[C@@H](c2nnc(-c3cccc(F)c3)o2)[C@H](C)O)ccc(C#N)c1Cl [Example 81, 2-chloro-4-((1R,2S)-1-(5-(3-fluorophenyl)-1,3,4-oxadiazol-2-yl)-2-hydroxypropylamino)-3-methylbenzonitrile] | 2 | 
Cc1c(N[C@@H](c2nc(-c3ccccc3)no2)[C@@H](C)O)ccc(C#N)c1Cl [Example 18, 2-chloro-4-((1R,2R)-2-hydroxy-1-(3-phenyl-1,2,4-oxadiazol-5-yl)propylamino)-3-methylbenzonitrile] | 60 | 
Cc1c(N[C@@H](c2nnc(-c3ccc(F)cc3)o2)[C@@H](C)O)ccc(C#N)c1Cl [Example 19, 2-chloro-4-((1R,2R)-1-(5-(4-fluorophenyl)-1,3,4-oxadiazol-2-yl)-2-hydroxypropylamino)-3-methylbenzonitrile] | 19 | 

Source: patent publication US8455525B2, “Selective androgen receptor modulators” (Radius Health, Inc., priority 2008, dated 2013)
